From publication PMC8353398 (Frontiers in Pharmacology, 2021)

Assays:
[1] = tested on: spontaneously hypertensive rats (SHR); assay: Invasive hemodynamics and echocardiography after 6-week infusion in SHR rats; conditions: for Diastolic AP / Mean AP / Systolic AP: pressure catheter
Experimental: Male spontaneously hypertensive rats (SHR) and normotensive Wistar-Kyoto (WKY) rats were purchased from Charles River Laboratories (Kingston, ON, Canada) and maintained in a temperature-controlled room with a 12 h light/dark cycle at the animal facility of the Université de Sherbrooke. All animals were randomized with unique identification number into the different groups tested to maintain experimenter blinding. The study included six distinct SHR experimental groups (Table 1). Three groups received a standard rat chow diet containing 0.3% of NaCl (Charles River, ON, Canada) while the other three groups were fed a rat diet containing 8% of NaCl for 6 weeks (Research Diets, NJ, United States). Once a week, urine output and water intake were measured over 24 h using metabolic cages following 3 days of acclimatization. After 6 weeks of different salt intake regimens, the rats were anesthetized with 2% isoflurane for echocardiographic and hemodynamic measurements. Subsequently, blood samples were collected into tubes containing K2-EDTA and centrifuged at 2000 g for 10 min at 4°C before storing the plasma at −80°C. Plasma and urinary concentrations of sodium were determined by a vitros 750 XRC analyser (Johnson-Johnson Clinical Diagnostics; Rochester, NY). OCT-embedded sections of heart (7 µm) were generated and collagen fibers visualized by Masson’s trichrome staining. Immunohistochemistry stained slides were captured by an automated Hamamatsu Nanozoomer 2.0RS slide scanner (Hamamatsu Photonics). Heart and kidneys were also harvested, snap frozen in liquid nitrogen and stored at −80°C for mRNA expression analysis. All animal procedures were approved by our institutional ethical committee (protocol #2017–2115), in compliance with the policies and directives of the Canadian Council on Animal Care and with the ARRIVE guidelines.
Briefly, 2-chlorotrityl chloride resin (2-CTC, 120 mg) was loaded with Fmoc-L-Phe-OH (0.85 mmol/g). Fmoc protecting group was removed by treating the resin with a 20% piperidine solution. The coupling steps were carried out using [hexafluorophosphate of O-(7-azabenzotriazol-1-yl)-1,1,3,3-tetramethyluronium] (HATU, 5 equiv), amino acid (5 equiv) and DIPEA (5 equiv). The final peptide was cleaved from resin using a cocktail of trifluoroacetic acid (TFA)/triisopropylsilane (TIPS)/ethanedithiol (EDT)/water (92.5/2.5/2.5/2.5) and purified by preparative HPLC (ACE5 C18 column 250 × 21.2 mm, 5 μm spherical particle size). […] Finally, peptide was purified by preparative HPLC.
Transthoracic echocardiography was performed under isoflurane anesthesia (2%; […]; Baxter) with the Vevo 3,100 ultrasound apparatus using a MX250 transducer (FUJIFILM VisualSonics, ON, Canada). A short axis view of the left ventricle (LV) was obtained at the level of the papillary muscle and the M-mode tracing was recorded. LV End-Diastolic and End-Systolic Diameters (LVEDD; LVESD) were measured in order to calculate the fractional shortening (FS). Stroke volume was next calculated in order to assess Cardiac Output (CO) and Cardiac Index (CI). Pulse propagation velocity (PPV) was determined by ultrasound measurements of the abdominal aorta using EKV-image acquisition and analyzed with Vevo-Vasc software (FUJIFILM VisualSonics, ON, Canada). For invasive hemodynamic measurements, rats were intubated under isoflurane anesthesia (2%; […]; Baxter, IL, United States) and ventilated (SAR-1000, CWE). The right carotid artery was then cannulated with a pressure catheter (1.9F, Transonic, NY, United States) and advanced into the LV to record end-systolic and end-diastolic pressures.

[2] = tested on: rACE; assay: Peptide stability, cleavage assay with purified rat ACE; assay type: in vitro ADME; conditions: purified rat ACE (final around 82 nM), 5 µL of 1 mM peptide in about 105 µL; 100 mM Tris-HCl pH 7.4, 100 mM NaCl, 10 µM ZnCl2; 37°C, 300 rpm; sampled 5-120 min; UPLC-MS SIM; repeated 3-5 times
Experimental: (§1) Rat enzymes rACE2 and rNEP were purchased from Sino Biological (Beijing, China) while rACE was obtained from EMD Millipore (Burlington, MA, United States). Enzymes were dissolved in milli-Q water (at 1 μM for rACE2/rNEP and 1.65 μM for rACE), aliquoted and stored at -80°C, as recommended by suppliers. […] Before adding the enzyme, the blank sample (t = 0 min) was prepared by removing 10 μL of this mixture and quenched with 10 μL of EDTA 0.5 M. To initiate the enzymatic reaction, 5 μL of enzyme (1 μM or 1.65 μM) was added to the mixture (final enzyme concentration around 50 nM or 82 nM). This mixture was kept in an incubator at 37°C equipped with an orbital shaker (300 rpm). Ten μL was sampled at 5, 10, 20, 60, and 120 min from this mixture, and quenched with 10 μL EDTA 0.5 M (prepared in milli-Q water and filtered) to inactivate the enzyme. […] First analyses (t = 0 min, t = 120 min) scanned m/z from 300-1200 to evaluate if peptides are cleaved and peptide fragments will be detected. After identifying the m/z of peptides and fragments, peptides were quantified using single ion mode (SIM). […] Angiotensin II was used as reference substrate in the assay with rACE2 and rNEP and angiotensin I was used as reference substrate in the assay with rACE. Experiments were repeated 3-5 times.

[3] = target: T1, rACE2 (Rattus norvegicus, UniProt Q5EGZ1); assay: Peptide stability, cleavage assay with purified rat ACE2; assay type: in vitro ADME; conditions: purified rat ACE2 (final around 50 nM), 5 µL of 1 mM peptide in about 105 µL; 100 mM Tris-HCl pH 7.4, 100 mM NaCl, 10 µM ZnCl2; 37°C, 300 rpm; sampled 5-120 min; UPLC-MS SIM; repeated 3-5 times
T1 construct: purchased Sino Biological (Beijing, China)
T1 sequence (Q5EGZ1 18-805): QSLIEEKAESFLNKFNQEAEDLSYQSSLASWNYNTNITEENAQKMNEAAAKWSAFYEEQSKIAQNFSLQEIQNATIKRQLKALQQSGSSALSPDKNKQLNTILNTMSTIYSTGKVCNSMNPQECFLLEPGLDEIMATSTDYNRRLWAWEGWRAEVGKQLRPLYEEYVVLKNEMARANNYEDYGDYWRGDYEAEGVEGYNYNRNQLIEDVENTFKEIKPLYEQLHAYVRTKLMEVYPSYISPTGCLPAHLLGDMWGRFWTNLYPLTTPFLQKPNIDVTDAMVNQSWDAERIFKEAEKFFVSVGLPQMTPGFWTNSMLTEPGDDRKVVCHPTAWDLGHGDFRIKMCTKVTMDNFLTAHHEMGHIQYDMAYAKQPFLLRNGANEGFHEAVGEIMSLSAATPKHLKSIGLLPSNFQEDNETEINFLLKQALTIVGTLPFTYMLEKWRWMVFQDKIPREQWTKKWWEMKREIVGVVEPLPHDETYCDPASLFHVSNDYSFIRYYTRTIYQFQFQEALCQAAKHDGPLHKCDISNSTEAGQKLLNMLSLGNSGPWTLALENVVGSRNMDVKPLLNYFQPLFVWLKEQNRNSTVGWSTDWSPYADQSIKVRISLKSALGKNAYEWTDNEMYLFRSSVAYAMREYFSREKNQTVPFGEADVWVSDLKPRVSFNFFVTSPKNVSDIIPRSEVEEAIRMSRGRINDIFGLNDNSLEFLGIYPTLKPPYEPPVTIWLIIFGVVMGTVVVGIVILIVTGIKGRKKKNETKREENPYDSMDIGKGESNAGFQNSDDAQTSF
Experimental: as §1

[4] = target: T2, rNEP (Rattus norvegicus, UniProt P07861); assay: Peptide stability, cleavage assay with purified rat neprilysin; assay type: in vitro ADME; conditions: purified rat NEP (final around 50 nM), 5 µL of 1 mM peptide in about 105 µL; 100 mM Tris-HCl pH 7.4, 100 mM NaCl, 10 µM ZnCl2; 37°C, 300 rpm; sampled 5-120 min; UPLC-MS SIM; repeated 3-5 times
T2 construct: purchased Sino Biological (Beijing, China)
T2 sequence (P07861 1-750): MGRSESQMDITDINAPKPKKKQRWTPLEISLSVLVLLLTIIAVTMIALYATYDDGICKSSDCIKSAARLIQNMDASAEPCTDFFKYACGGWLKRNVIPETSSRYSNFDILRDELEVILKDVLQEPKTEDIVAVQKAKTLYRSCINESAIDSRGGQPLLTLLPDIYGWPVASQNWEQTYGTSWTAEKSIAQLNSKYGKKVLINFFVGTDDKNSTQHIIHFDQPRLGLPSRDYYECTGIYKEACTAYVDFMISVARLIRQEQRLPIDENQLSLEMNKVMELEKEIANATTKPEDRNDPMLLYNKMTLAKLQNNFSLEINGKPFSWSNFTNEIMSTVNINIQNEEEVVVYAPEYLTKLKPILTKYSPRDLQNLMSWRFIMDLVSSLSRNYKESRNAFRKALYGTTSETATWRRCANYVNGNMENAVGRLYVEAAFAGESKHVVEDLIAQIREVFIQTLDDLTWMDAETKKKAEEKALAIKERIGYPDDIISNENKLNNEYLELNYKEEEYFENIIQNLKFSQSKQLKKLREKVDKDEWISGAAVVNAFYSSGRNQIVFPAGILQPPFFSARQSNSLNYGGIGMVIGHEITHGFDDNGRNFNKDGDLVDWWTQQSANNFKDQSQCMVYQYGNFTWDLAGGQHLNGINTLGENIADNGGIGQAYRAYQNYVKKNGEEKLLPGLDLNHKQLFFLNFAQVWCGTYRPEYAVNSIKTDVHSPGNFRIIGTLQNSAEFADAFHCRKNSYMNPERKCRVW
Experimental: as §1

[5] = tested on: spontaneously hypertensive rats (SHR); assay: Quantitative RT-PCR of pro-fibrotic and RAAS genes in heart and kidneys of treated SHR rats; assay type: in vivo, rat; conditions: high-salt diet, 10 nmol/kg/hr 6-week infusion, qRT-PCR, Rpl30 reporter
Experimental: Total RNA was extracted from heart and kidneys using RNeasy Mini kits (Qiagen) according to the manufacturer’s protocol. iScript Reverse Transcription Supermix (Bio-Rad) was used to prepare cDNA from 1 µg of total RNA in 20 µL. Real-time PCR was performed on technical duplicates with cDNA diluted 30x in nuclease-free water and using SsoAdvanced™ Universal SYBR® Green Supermix (Bio-Rad) in a Mastercycler® ep RealPlex (Eppendorf). The Ribosomal protein L30 (Rpl30) of heart or kidney was used as a reporter gene and fold changes were obtained using the 2(-ΔΔCt) method ([Livak and Schmittgen, 2001]). Data were then normalized to SHR rats receiving a standard chow diet containing 0.3% of NaCl.

[6] = tested on: adult male Sprague-Dawley rats; conditions: cecal-ligation puncture sepsis, 10 nmol/kg/hr, ref Coquerel et al., 2017; cited from earlier work
From the text: The final peptide was cleaved fr ...

[7] = SHR, high-salt diet (8% NaCl), 10 nmol/kg/hr s.c. infusion 6 weeks, mean ± SEM, n = 6
[8] = SHR, high-salt diet, 10 nmol/kg/hr s.c. infusion 6 weeks, echocardiography, mean ± SEM, n = 6
[9] = SHR, normal-salt diet (0.3% NaCl), 10 nmol/kg/hr s.c. infusion 6 weeks, mean ± SEM, n = 5
[10] = SHR, normal-salt diet, 10 nmol/kg/hr s.c. infusion 6 weeks, echocardiography, mean ± SEM, n = 5

With `CSCC[C@H](NC(=O)[C@@H]1CCCN1C(=O)CNC(=O)[C@H](CCCCN)NC(=O)[C@H](Cc1cnc[nH]1)NC(=O)[C@H](CO)NC(=O)[C@H](CC(C)C)NC(=O)[C@H](CCCNC(=N)N)NC(=O)[C@@H]1CCCN1C(=O)[C@H](CCCNC(=N)N)NC(=O)[C@@H]1CCC(=O)N1)C(=O)N1CCC[C@H]1C(=O)N[C@@H](Cc1ccccc1)C(=O)O` [Ape13, [Pyr^1]-Apelin-13] the “Effect on cardiovascular damage caused by hypertension per se” value ([1]; SHR on normal-salt intake compared to normotensive WKY, chronic treatment 6 weeks) was “does not prevent or reverse”, the “Effect on hypertension induced by a high-salt diet” value ([1]; SHR, high-salt diet (8% NaCl), 10 nmol/kg/hr continuous 6-week infusion) was “no significant effect” and the Weight [1, 7] was 339 ± 10 g. The “Diastolic AP” value [1, 7] was 131 ± 17 mmHg, the “Mean AP” value [1, 7] was 152 ± 19 mmHg and the “Systolic AP” value [1, 7] was 194 ± 23 mmHg. The “AWTS (anterior wall thickness during systole)” value [1, 8] was 2.4 ± 0.1 mm, the “FS (fractional shortening)” value [1, 8] was 37.6 ± 3.3% and the “HR (heart rate)” value [1, 8] was 348 ± 12 bpm. The “LVEDD (left ventricular end diastolic diameter)” value [1, 8] was 7.2 ± 0.1 mm, the “LVESD (left ventricular end systolic diameter)” value [1, 8] was 4.5 ± 0.3 mm and the “PWTS (posterior wall thickness during systole)” value [1, 8] was 2.6 ± 0.1 mm. The Weight [1, 9] was 321 ± 5 g, the “Diastolic AP” value [1, 9] was 125 ± 12 mmHg and the “Mean AP” value [1, 9] was 143 ± 14 mmHg. The “Systolic AP” value [1, 9] was 179 ± 19 mmHg, the “APPV (aortic pulse propagation velocity)” value [1, 10] was 4.5 ± 0.4 m/s and the “AWTS (anterior wall thickness during systole)” value [1, 10] was 2.3 ± 0.1 mm. The “FS (fractional shortening)” value [1, 10] was 39.8 ± 1.1%, the “HR (heart rate)” value [1, 10] was 372 ± 4 bpm and the “LVEDD (left ventricular end diastolic diameter)” value [1, 10] was 6.3 ± 0.4 mm. The “LVESD (left ventricular end systolic diameter)” value [1, 10] was 3.8 ± 0.3 mm, the “PWTS (posterior wall thickness during systole)” value [1, 10] was 2.3 ± 0.1 mm and the “Cleavage by ACE within 2 h” value [2] was “only partially”. The “Cleavage by ACE2 within 2 h” value [3] was “rapidly and fully hydrolyzed”, the “Cleavage by neprilysin within 2 h” value [4] was “rapidly and fully hydrolyzed” and the “Expression of pro-fibrotic Col1a, Acta1 and Tgfb2 genes in kidneys” value [5] was “only reduced the Tgfb2 mRNA level”. For the same compound, the Survival [6] was “improved the survival”.
